Data taken from patent US20230165973A1, “COMPOSITIONS AND METHODS FOR DELIVERING MESSENGER RNA” (ARBUTUS BIOPHARMA CORPORATION, priority 2013, published 2023).
Several values for one entry are separate records, joined by “and”; a condition that tells them apart may be missing. Identical values can stand only once.

Assays:
naïve Balb/C mice = test: Luciferase liver model, aminolipid potency comparison (Example 2); format: in vivo, mouse; details: intravenously, 0.5 mg/kg total mRNA, six hours following injection
Description: (§1) The experiments described in this Example 2 used a firefly luciferase mRNA (“mLuc”), fully modified with pseudouridine and 5-methylcytidine replacing uridine and cytidine respectively. The LNP formulation used in these studies have the following general lipid composition (molar ratios): PEG-lipid (PEG2000-C-DMA (1.6 mol %); appropriate aminolipid (54.6 mol %); cholesterol (32.8 mol %); and DSPC (10.9 mol %). A lipid stock was prepared with the appropriate lipids dissolved in ethanol (12.6 mM). The mLuc stock was made up in a 40 mM EDTA buffer at 0.366 mg/mL in 40 mM EDTA. The two stocks were combined using the Jeffs et al method (Pharm. Research (2005), 22(3), pages 362-372), blending in a t-connector and diluted into Phosphate Buffered Saline, pH 7.4. Buffer exchange was then performed via overnight bag dialysis against 10× volume of PBS. After dialysis, LNP were concentrated by centrifugation in Vivaspin-6 or Vivaspin-20 units (MWCO 100 k) from GE Healthcare. The LNP were then sterile filtered (0.2 μm filter). Concentration of the LNP was determined using RiboGreen and a Varian Cary Eclipse Fluorimeter. Particle size and polydispersity were determined using a Malvern Nano Series Zetasizer.
LNP containing a luciferase mRNA payload were dosed at 0.5 mg/kg in naïve Balb/C mice (n=3). Six hours following injection, the mice were euthanized and livers were removed, weighed, and placed in lysing matrix tubes (containing one ceramic bead) on ice. PBS treatment groups were included to determine the background level of quenching of luciferase activity caused by the tissue homogenate in the Luciferase assay. Following collection, the tissues from these PBS treated animals were spiked with 50 μL of 100 ng/mL Luciferase solution in 1×CCLR (Cell Culture Lysis Reagent). Tissues were stored at −80° C. until Luciferase assay was performed.
(§2) All sample processing procedures were performed on ice. Tissues were homogenized and centrifuged in an Eppendorf microfuge at 3000 rpm & 4° C. for 10 minutes. After centrifugation, 20 μL of homogenate was aliquoted in duplicate into a white 96-well luminometer plate. Firefly luciferase […] was then analyzed on the EG&G Berthold Microplate Luminometer LB using the Promega Luciferase Assay System. The luciferase activity within the wells was determined by comparing the resulting RLUs for the homogenates to a standard curve prepared from 20 μL of firefly luciferase. A quenching factor was assigned to each tissue to control for natural quenching from the homogenates. This was determined using luciferase-spiked tissue from PBS treated mice.
The various formulations described were also assessed for potency in the mouse liver model. As an additional control, the use of the commercially available delivery reagent TransIT (Mirus) has been described in the literature for delivery of mRNA. A 0.05 mg/mL solution of TransIT-mRNA complex was prepared as follows. 50 μL of 1 mg/mL mRNA was added to 860 μL of DMEM, and to this solution the reagents from the TransIT-mRNA kit (Mirus) were added. In sequential order, 35 μL of the mRNA Boost reagent was added followed by 55 μL of the TransIT-mRNA reagent. The final solution was then incubated for 2-5 minutes before intravenous or intraperitoneal dosing.
All formulations were administered intravenously at a dose of 0.5 mg/kg total mRNA.

[1] = Formulability: LNP particle size, polydispersity and mRNA encapsulation (Example 2); format: physicochemical; details: mLuc LNP with the aminolipid at 54.6 mol %; 12.6 mM lipid stock
Description: as §1
The effect of the choice of aminolipid on parameters such as formulability and potency in the mRNA formulations was examined. As benchmarks, we selected the dilinoleyl lipids 5, 6, 7, and 8. […] We also selected a range of lipids with hydrophobic domains consisting of multiple (3 or 4) alkyl chains; 10, 9, 11, 13, 14, 17, and 18. Formulations were prepared as described above, using a 12.6 mM lipid stock.

Balb/C mice = test: Luciferase assay of Example 1 with tetraalkyl lipids, liver (Example 8); format: in vivo, mouse; details: particles comprising the lipid, assay described in Example 1
Description: In the liver model, LNP were dosed at 0.5 mg/kg in the naïve Balb/C mice (n=5). Six hours following injection, the mice were euthanized and the livers were removed, weighed, and placed in lysing matrix tubes (containing one ceramic bead) on ice.
as §2, with “rpm at” for “rpm &”, “resulting Relative Light Units (RLUs)” for “resulting RLUs”
In particular, the tetraalkyl lipids mediated an enhanced level of delivery of luciferase mRNA to living cells than the established benchmark dialkyl lipid 8 shown in Table 8.

[2] = Reproducibility of lipid particle formulation; format: physicochemical; details: multiple mLuc LNP formulations; lipid stock 8.3-19.0 mM total lipid
Description: Two aminolipids were selected to examine the reproducibility of lipid particle formulation. The benchmark dilinoleyl aminolipid MC3 was compared to the short trialkyl lipid 13-B43.
Multiple formulations were made, using the following composition (expressed as molar percentages): PEG-lipid (PEG2000-C-DMA) (1.6 mol %); amino lipid (54.6 mol %); cholesterol (32.8 mol %); and DSPC (10.9 mol %), according to the general procedures described above. The lipid stock was prepared in ethanol (ranging from 8.3-19.0 mM total lipid). The mRNA stock was prepared at 0.366 mg/mL in 40 mM EDTA. Buffer exchange was then performed via overnight bag dialysis against 10× volume of PBS. Samples were then concentrated to […] mRNA by centrifugation in Vivaspin-20 units (MWCO 100 k) from GE Healthcare. The LNP were then sterile filtered. Concentration of the LNP was determined using RiboGreen and a Varian Cary Eclipse Fluorimeter. Particle size and polydispersity were determined using a Malvern Nano Series Zetasizer.

Row | Compound | % Encaps (Percentage Encapsulation) [1] | PDI (polydispersity index) [1] | Zavg (average lipid particle diameter) [1] | Particle size [2] | Polydispersity Index [2] | Luciferase protein in ng per g of liver (naïve Balb/C mice) | Activity in luciferase assay (Balb/C mice) | % Encaps of mLuc [2]
1 | CCCCCCCCC(CCCCCC)CC(CC(CCCCCC)CCCCCCCC)OC(=O)CCCCN(C)C (stereo not drawn) [Compound 35, 9,13-dihexylhenicosan-11-yl 5-(dimethylamino)pentanoate] | – | – | – | – | – | – | 1,412,464 pg/g liver tissue | –
2 | CCCCCCCCC(CCCCCC)CC(CC(CCCCCC)CCCCCCCC)OC(=O)CCCCCN(C)C (stereo not drawn) [Compound 37, 9,13-dihexylhenicosan-11-yl 6-(dimethylamino)hexanoate] | – | – | – | – | – | – | 2,228,526 pg/g liver tissue | –
3 | CCCCC/C=C\CCCC(CCC/C=C\CCCCC)C(CC(CCCC)CCCCCC)OC(=O)CCCCN(C)C (stereo not drawn) [Compound 43, (Z)-7-butyl-10-((Z)-dec-4-en-1-yl)icos-14-en-9-yl 5-(dimethylamino)pentanoate] | – | – | – | – | – | – | 919,590 pg/g liver tissue | –
4 | CCCCC/C=C\C/C=C\CCCCCCCCC(OC(=O)CCCCN(C)CC)C(O)(CCCCCCCC/C=C\C/C=C\CCCCC)CCCCCCCC/C=C\C/C=C\CCCCC (stereo not drawn) [Compound 10, (6Z,9Z,29Z,32Z)-20-hydroxy-20-((9Z,12Z)-octadeca-9,12-dienyl)octatriaconta-6,9,29,32-tetraen-19-yl 5-(ethyl(methyl)amino)pentanoate] | – | – | – | – | – | 203.47 ng per g of liver | – | –
5 | CCCCC/C=C\C/C=C\CCCCCCCCC(CCCCCCCC/C=C\C/C=C\CCCCC)OCCCN(C)C [Compound 8] | 57% | 0.13 | 144 nm | – | – | 264.90 ng per g of liver | 774,159 pg/g liver tissue | –
6 | CCCCC/C=C\CCCC(CCC/C=C\CCCCC)C(CC/C=C\CCCCC)OC(=O)CCCCN(C)C (stereo not drawn) [Compound 19] | 78% | 0.10 | 138 nm | – | – | – | – | –

Continued, in another order:

Row | % Encaps (Percentage Encapsulation) [1] | PDI (polydispersity index) [1] | Zavg (average lipid particle diameter) [1] | Particle size [2] | Polydispersity Index [2] | Compound | Luciferase protein in ng per g of liver (naïve Balb/C mice) | Activity in luciferase assay (Balb/C mice) | % Encaps of mLuc [2]
7 | 88% | 0.08 | 117 nm | – | – | CCC/C=C\CCC(CC/C=C\CCC)CC(OC(=O)CCCCN(C)C)C(CC/C=C\CCC)CC/C=C\CCC (stereo not drawn) [Compound 18] | 1388.39 ng per g of liver | – | –
8 | 50% | 0.11 | 158 nm | 134 nm and 151 nm and 158 nm and 119 nm | 0.11 and 0.07 and 0.08 and 0.14 and 0.12 | CCCCC/C=C\C/C=C\CCCCCCCCC(CCCCCCCC/C=C\C/C=C\CCCCC)OC(=O)CCCN(C)C [Compound 7, (6Z,9Z,28Z,31Z)-heptatriaconta-6,9,28,31-tetraen-19-yl 4-(dimethylamino)butanoate] | 369.85 ng per g of liver | – | 56% and 63% and 49% and 50% and 69% and 52%
9 | 62% | 0.06 | 95 nm | – | – | CCCCC/C=C\CCCC(CCC/C=C\CCCCC)C(CCC/C=C\CCCCC)OC(=O)CCCN(C)C (stereo not drawn) [Compound 9] | 968.83 ng per g of liver | – | –
